Values after ≈ are worked out from the molar mass of the structure shown. Active and inactive are the calls of the source. The calls are words filed in the database; no cut-off is given here. Where a SMILES comes first, the peptide text is derived from it. Bridges are numbered along the chain shown (N, C = ends). [ ]: non-standard residue; d: D form. d(aIle) = CC[C@H](C)[C@@H](N)C(=O)O; dNMeF = CN[C@H](Cc1ccccc1)C(=O)O; Orn = NCCC[C@H](N)C(=O)O
Columns and labels:
Type in all cases: functional
[1] = test system: Staphylococcus aureus; assay: Antibacterial activity against Staphylococcus aureus ATCC 29213 after 24 hrs by broth microdilution method
[2] = test system: Bacillus subtilis; assay: Antibacterial activity against Bacillus subtilis ATCC 6051 after 24 hrs by broth microdilution method
[3] = test system: Escherichia coli; assay: Antibacterial activity against Escherichia coli ATCC 25922 after 24 hrs by broth microdilution method
[4] = test system: Pseudomonas aeruginosa; assay: Antibacterial activity against Pseudomonas aeruginosa ATCC 27853 after 24 hrs by broth microdilution method

| SMILES | MIC ([1]; ATCC 29213, 24 h) [µg/mL] | MIC ([2]; ATCC 6051, 24 h) [µg/mL] | MIC ([3]; ATCC 25922, 24 h) [µg/mL] | MIC ([4]; ATCC 27853, 24 h) [µg/mL] | MIC [1] | MIC [2] | MIC [3] | MIC [4] |
| --- | --- | --- | --- | --- | --- | --- | --- | --- |
| CC[C@H](C)[C@H](NC(=O)[C@@H](Cc1ccccc1)NC)C(=O)N[C@@H](CO)C(=O)N[C@H](CCC(N)=O)C(=O)N[C@@H](C(=O)N[C@H](C(=O)N[C@@H](CCCCN)C(=O)N[C@H]1C(=O)N[C@@H](C)C(=O)N[C@@H](CCCN)C(=O)N[C@@H]([C@@H](C)CC)C(=O)O[C@H]1C)[C@@H](C)CC)[C@@H](C)CC | 128 (≈ 103 µM) | 16 (≈ 12.9 µM) | 512 (≈ 412 µM) | 512 (≈ 412 µM) |  |  |  |  |
| CC[C@H](C)[C@H](NC(=O)[C@@H](Cc1ccccc1)NC)C(=O)N[C@@H](CO)C(=O)N[C@H](CCCCN)C(=O)N[C@@H](C(=O)N[C@H](C(=O)N[C@@H](CCCCN)C(=O)N[C@H]1C(=O)N[C@@H](C)C(=O)N[C@@H](CCCN)C(=O)N[C@@H]([C@@H](C)CC)C(=O)O[C@H]1C)[C@@H](C)CC)[C@@H](C)CC |  | 16 (≈ 12.9 µM) | 128 (≈ 103 µM) | 128 (≈ 103 µM) | inactive |  |  |  |
| CC[C@H](C)[C@H](NC(=O)[C@@H](CCCCN)NC)C(=O)N[C@@H](CO)C(=O)N[C@H](CCC(N)=O)C(=O)N[C@@H](C(=O)N[C@H](C(=O)N[C@@H](CO)C(=O)N[C@H]1C(=O)N[C@@H](C)C(=O)N[C@@H](CCCNC(=N)N)C(=O)N[C@@H]([C@@H](C)CC)C(=O)O[C@H]1C)[C@@H](C)CC)[C@@H](C)CC |  |  |  |  | inactive | inactive | inactive | inactive |
| CC[C@H](C)[C@H](NC(=O)[C@@H](Cc1ccccc1)NC)C(=O)N[C@@H](CCCCN)C(=O)N[C@H](CCC(N)=O)C(=O)N[C@@H](C(=O)N[C@H](C(=O)N[C@@H](CO)C(=O)N[C@H]1C(=O)N[C@@H](CCCCN)C(=O)N[C@@H](CCCCN)C(=O)N[C@@H]([C@@H](C)CC)C(=O)O[C@H]1C)[C@@H](C)CC)[C@@H](C)CC (stereo in doubt) | 4 (≈ 3.04 µM) | 1 (≈ 0.761 µM) | 32 (≈ 24.3 µM) | 128 (≈ 97.4 µM) |  |  |  |  |
| CC[C@H](C)[C@H](NC(=O)[C@@H](Cc1ccccc1)NC)C(=O)N[C@@H](CCCCN)C(=O)N[C@H](CCCCN)C(=O)N[C@@H](C(=O)N[C@H](C(=O)N[C@@H](CO)C(=O)N[C@H]1C(=O)N[C@@H](CCCCN)C(=O)N[C@@H](CCCCN)C(=O)N[C@@H]([C@@H](C)CC)C(=O)O[C@H]1C)[C@@H](C)CC)[C@@H](C)CC | 32 (≈ 24.3 µM) | 8 (≈ 6.08 µM) | 32 (≈ 24.3 µM) | 64 (≈ 48.7 µM) |  |  |  |  |
| CC[C@H](C)[C@H](NC(=O)[C@@H](Cc1ccccc1)NC)C(=O)N[C@@H](CO)C(=O)N[C@H](CCCCN)C(=O)N[C@@H](C(=O)N[C@H](C(=O)N[C@@H](CO)C(=O)N[C@H]1C(=O)N[C@@H](C)C(=O)N[C@@H](CCCN)C(=O)N[C@@H]([C@@H](C)CC)C(=O)O[C@H]1C)[C@@H](C)CC)[C@@H](C)CC | 2 (≈ 1.66 µM) | 2 (≈ 1.66 µM) | 64 (≈ 53.2 µM) | 256 (≈ 213 µM) |  |  |  |  |
| CC[C@H](C)[C@H](NC(=O)[C@@H](Cc1ccccc1)NC)C(=O)N[C@@H](CO)C(=O)N[C@H](CCCCN)C(=O)N[C@@H](C(=O)N[C@H](C(=O)N[C@@H](CCCCN)C(=O)N[C@H]1C(=O)N[C@@H](CCCCN)C(=O)N[C@@H](CCCCN)C(=O)N[C@@H]([C@@H](C)CC)C(=O)O[C@H]1C)[C@@H](C)CC)[C@@H](C)CC (H-[dNMeF]IS[dK][d(aIle)]IK[dT]KKI; ester 8-C) | 256 (≈ 195 µM) | 4 (≈ 3.04 µM) | 32 (≈ 24.3 µM) | 64 (≈ 48.7 µM) |  |  |  |  |
| CC[C@H](C)[C@H](NC(=O)[C@@H](Cc1ccccc1)NC)C(=O)N[C@@H](CN)C(=O)N[C@H](CN)C(=O)N[C@@H](C(=O)N[C@H](C(=O)N[C@@H](CO)C(=O)N[C@H]1C(=O)N[C@@H](CN)C(=O)N[C@@H](CCCCN)C(=O)N[C@@H]([C@@H](C)CC)C(=O)O[C@H]1C)[C@@H](C)CC)[C@@H](C)CC | 16 (≈ 13.5 µM) | 4 (≈ 3.37 µM) | 64 (≈ 53.9 µM) | 32 (≈ 26.9 µM) |  |  |  |  |
| CC[C@H](C)[C@H](NC(=O)[C@@H](Cc1ccccc1)NC)C(=O)N[C@@H](CCCCN)C(=O)N[C@H](CCCCN)C(=O)N[C@@H](C(=O)N[C@H](C(=O)N[C@@H](CO)C(=O)N[C@H]1C(=O)N[C@@H](C)C(=O)N[C@@H](CCCNC(=N)N)C(=O)N[C@@H]([C@@H](C)CC)C(=O)O[C@H]1C)[C@@H](C)CC)[C@@H](C)CC | 32 (≈ 24.9 µM) | 4 (≈ 3.11 µM) | 64 (≈ 49.8 µM) | 64 (≈ 49.8 µM) |  |  |  |  |
| CC[C@H](C)[C@H](NC(=O)[C@@H](Cc1ccccc1)NC)C(=O)N[C@@H](CO)C(=O)N[C@H](CCC(N)=O)C(=O)N[C@@H](C(=O)N[C@H](C(=O)N[C@@H](CO)C(=O)N[C@H]1C(=O)N[C@@H](C)C(=O)N[C@@H](CCCN)C(=O)N[C@@H]([C@@H](C)CC)C(=O)O[C@H]1C)[C@@H](C)CC)[C@@H](C)CC | 2 (≈ 1.66 µM) | 0.25 (≈ 0.208 µM) | 32 (≈ 26.6 µM) | 256 (≈ 213 µM) |  |  |  |  |
| CC[C@H](C)[C@H](NC(=O)[C@@H](Cc1ccccc1)NC)C(=O)N[C@@H](CCCCN)C(=O)N[C@H](CCCCN)C(=O)N[C@@H](C(=O)N[C@H](C(=O)N[C@@H](CO)C(=O)N[C@H]1C(=O)N[C@@H](C)C(=O)N[C@@H](CCCCN)C(=O)N[C@@H]([C@@H](C)CC)C(=O)O[C@H]1C)[C@@H](C)CC)[C@@H](C)CC (H-[dNMeF]IK[dK][d(aIle)]IS[dT]AKI; ester 8-C) | 8 (≈ 6.36 µM) | 1 (≈ 0.795 µM) | 32 (≈ 25.4 µM) | 32 (≈ 25.4 µM) |  |  |  |  |
| CC[C@H](C)[C@H](NC(=O)[C@@H](Cc1ccccc1)NC)C(=O)N[C@@H](CCCCN)C(=O)N[C@H](CCCCN)C(=O)N[C@@H](C(=O)N[C@H](C(=O)N[C@@H](CCCCN)C(=O)N[C@H]1C(=O)N[C@@H](C)C(=O)N[C@@H](CCCN)C(=O)N[C@@H]([C@@H](C)CC)C(=O)O[C@H]1C)[C@@H](C)CC)[C@@H](C)CC (H-[dNMeF]IK[dK][d(aIle)]IK[dT]A[Orn]I; ester 8-C) | 256 (≈ 199 µM) | 16 (≈ 12.5 µM) | 32 (≈ 24.9 µM) | 64 (≈ 49.8 µM) |  |  |  |  |
| CC[C@H](C)[C@H](NC(=O)[C@@H](Cc1ccccc1)NC)C(=O)N[C@@H](CN)C(=O)N[C@H](CCC(N)=O)C(=O)N[C@@H](C(=O)N[C@H](C(=O)N[C@@H](CO)C(=O)N[C@H]1C(=O)N[C@@H](CN)C(=O)N[C@@H](CCCCN)C(=O)N[C@@H]([C@@H](C)CC)C(=O)O[C@H]1C)[C@@H](C)CC)[C@@H](C)CC | 4 (≈ 3.25 µM) | 4 (≈ 3.25 µM) | 64 (≈ 52 µM) | 64 (≈ 52 µM) |  |  |  |  |
| CC[C@H](C)[C@H](NC(=O)[C@@H](Cc1ccccc1)NC)C(=O)N[C@@H](CO)C(=O)N[C@H](CCCCN)C(=O)N[C@@H](C(=O)N[C@H](C(=O)N[C@@H](CO)C(=O)N[C@H]1C(=O)N[C@@H](CCCCN)C(=O)N[C@@H](CCCCN)C(=O)N[C@@H]([C@@H](C)CC)C(=O)O[C@H]1C)[C@@H](C)CC)[C@@H](C)CC (H-[dNMeF]IS[dK][d(aIle)]IS[dT]KKI; ester 8-C) | 4 (≈ 3.14 µM) | 1 (≈ 0.785 µM) | 32 (≈ 25.1 µM) | 64 (≈ 50.3 µM) |  |  |  |  |
| CC[C@H](C)[C@H](NC(=O)[C@@H](Cc1ccccc1)NC)C(=O)N[C@@H](CCCCN)C(=O)N[C@H](CCC(N)=O)C(=O)N[C@@H](C(=O)N[C@H](C(=O)N[C@@H](CCCCN)C(=O)N[C@H]1C(=O)N[C@@H](C)C(=O)N[C@@H](CCCN)C(=O)N[C@@H]([C@@H](C)CC)C(=O)O[C@H]1C)[C@@H](C)CC)[C@@H](C)CC (stereo in doubt) |  | 32 (≈ 24.9 µM) |  |  | inactive |  | inactive | inactive |
| CC[C@H](C)[C@H](NC(=O)[C@@H](Cc1ccccc1)NC)C(=O)N[C@@H](CO)C(=O)N[C@H](CCC(N)=O)C(=O)N[C@@H](C(=O)N[C@H](C(=O)N[C@@H](CO)C(=O)N[C@H]1C(=O)N[C@@H](C)C(=O)N2C[C@@H](N)C[C@H]2C(=O)N[C@@H]([C@@H](C)CC)C(=O)O[C@H]1C)[C@@H](C)CC)[C@@H](C)CC |  |  |  |  | inactive | inactive | inactive | inactive |
| CC[C@H](C)[C@H](NC(=O)[C@@H](Cc1ccccc1)NC)C(=O)N[C@@H](CCCCN)C(=O)N[C@H](CCCCN)C(=O)N[C@@H](C(=O)N[C@H](C(=O)N[C@@H](CCCCN)C(=O)N[C@H]1C(=O)N[C@@H](C)C(=O)N[C@@H](CCCNC(=N)N)C(=O)N[C@@H]([C@@H](C)CC)C(=O)O[C@H]1C)[C@@H](C)CC)[C@@H](C)CC | 32 (≈ 24.1 µM) | 4 (≈ 3.01 µM) | 32 (≈ 24.1 µM) | 32 (≈ 24.1 µM) |  |  |  |  |
| CC[C@H](C)[C@H](NC(=O)[C@@H](Cc1ccccc1)NC)C(=O)N[C@@H](CO)C(=O)N[C@H](CCC(N)=O)C(=O)N[C@@H](C(=O)N[C@H](C(=O)N[C@@H](CO)C(=O)N[C@H]1C(=O)N[C@@H](C)C(=O)N[C@@H](CC/N=C(\N(C)C)N2CCOCC2)C(=O)N[C@@H]([C@@H](C)CC)C(=O)O[C@H]1C)[C@@H](C)CC)[C@@H](C)CC | 64 (≈ 48.2 µM) | 4 (≈ 3.01 µM) |  |  |  |  | inactive | inactive |

— ChEMBL document CHEMBL4038347, “Converting Teixobactin into a Cationic Antimicrobial Peptide (AMP)” (2017)
